{"source": "patent US20130164228A1", "about": "“COMPOSITIONS COMPRISING GALLATES AND GALLAMIDES” (Colgate-Palmolive Company, priority 2011, published 2013)", "key": {"[1]": {"system": "LL-37 release from human gingival epithelial cells", "assay": "Induction of anti-microbial peptides: LL-37 ELISA of supernatants", "format": "cell-based", "conditions": "for LL-37 (ng/ml) at 0.05% after 16 hrs: 0.05% test compound; for LL-37 (ng/ml) at 0.1% after 4 hrs: 0.1% test compound"}, "[2]": {"system": "β-defensin release from human gingival epithelial cells", "assay": "Induction of anti-microbial peptides: β-defensin ELISA of supernatants", "format": "cell-based", "conditions": "0.1% test compound"}, "[3]": {"assay": "Vitro-Skin assay of potential uptake in skin", "format": "in vitro ADME", "source_text": "Using a commercial Vitro-Skin® assay to measure potential uptake in skin, we see uptake from all the formulations, but have better uptake in the Dical formulation than in the silica/SLS formulation (units in micrograms/cm^2): • 0.2% THDG/CDC: 4.9 • 0.2% THDG/HSLS: 0.6 • 0.2% CHDG/CDC: 4.4 • 0.2% CHDG/[…] • 0.3% Triclosan (positive control): 7.7"}, "LL-37 production": {"system": "LL-37 production", "conditions": "natural products with only one 1,2,3-trihydroxybenzene ring; cited from earlier work"}, "[4]": {"assay": "Stability/discoloration of THDG and CHDG (neat, solution, saliva, dentifrice)", "format": "physicochemical", "conditions": "for stability in saliva (discoloration): 24 h at 37° C., subject specific, saliva pH 6.5-8; for discoloration in dentifrice, CDC base: in 2 weeks; for Stability of neat materials: neat powders; for discoloration of solutions in DMSO/water: pH 6.1-6.5, after 4M at RT; for discoloration in dentifrice, silica base: in 1 week"}, "[5]": {"system": "Actinomyces viscosus (ATCC # 43146)", "assay": "Antibacterial growth inhibition (GI) assay", "format": "cell-based", "conditions": "100 ppm, OD610 at 2, 4, 6, 24 h", "procedure": "An overnight culture of Actinomyces viscosus (ATCC # 43146) is diluted to an OD610˜0.2 in sterile trypticase soy broth (TSB) Nine mls of diluted Actinomyces viscosus is added to triplicate 15 mls sterile culture tubes for each sample or control tested. One ml of each analog was added to the corresponding culture tube and briefly vortexed. Cultures are incubated at 37° C. in a shaking water bath. Supernatants are removed at 2, 4, 6, and 24 h and the OD610 read. Results from triplicate samples were averaged and growth is plotted as a function of time."}}, "data": [{"compound": "CCCCOC(=O)c1cc(O)c(O)c(O)c1", "note": "[BG]", "values": [{"measurement": "LL-37 (ng/ml) at 0.05% after 16 hrs", "setting": "[1]", "result": 50, "unit": "ng/mL"}, {"measurement": "LL-37 (ng/ml) at 0.1% after 4 hrs", "setting": "[1]", "result": 100, "unit": "ng/mL"}, {"measurement": "β-defensin (ng/ml) at 0.1% after 4 hrs", "setting": "[2]", "result": 0, "unit": "ng/mL"}]}, {"compound": "Oc1cc(Cl)ccc1Oc1ccc(Cl)cc1Cl", "note": "[Triclosan, triclosan, reference compound]", "values": [{"measurement": "uptake in Vitro-Skin, positive control", "setting": "[3]; 0.3% Triclosan", "result": 7.7, "unit": "micrograms/cm^2"}]}, {"compound": "Oc1cc(O)c2c(c1)O[C@H](c1cc(O)c(O)c(O)c1)[C@H](O)C2", "note": "[epigallocatechin]", "values": [{"measurement": "potency in LL-37 production compared with EGCG", "setting": "LL-37 production", "result": "significantly less potent"}]}, {"compound": "O=C(N[C@@H]1CCCC[C@H]1NC(=O)c1cc(O)c(O)c(O)c1)c1cc(O)c(O)c(O)c1", "note": "(relative stereo) [THDGA, trans-1,2-cyclohexane digallamide]", "values": [{"measurement": "LL-37 (ng/ml) at 0.05% after 16 hrs", "setting": "[1]", "result": 130, "unit": "ng/mL"}, {"measurement": "LL-37 (ng/ml) at 0.1% after 4 hrs", "setting": "[1]", "result": 100, "unit": "ng/mL"}, {"measurement": "β-defensin (ng/ml) at 0.1% after 4 hrs", "setting": "[2]", "result": 1.5, "unit": "ng/mL"}]}, {"compound": "O=C(O[C@H]1CCCC[C@H]1OC(=O)c1cc(O)c(O)c(O)c1)c1cc(O)c(O)c(O)c1", "note": "[CHDG, cis-1,2-cyclohexanediol digallate]", "values": [{"measurement": "LL-37 (ng/ml) at 0.05% after 16 hrs", "setting": "[1]", "result": 3700, "unit": "ng/mL"}, {"measurement": "LL-37 (ng/ml) at 0.1% after 4 hrs", "setting": "[1]", "result": 5200, "unit": "ng/mL"}, {"measurement": "stability in saliva (discoloration)", "setting": "[4]", "result": "no discoloration to deep green discoloration"}, {"measurement": "discoloration in dentifrice, CDC base", "setting": "[4]; CDC base", "result": "slight discoloration"}, {"measurement": "Stability of neat materials", "setting": "[4]", "result": "short term shelf stability acceptable"}, {"measurement": "discoloration of solutions in DMSO/water", "setting": "[4]", "result": "no discoloration"}, {"measurement": "discoloration in dentifrice, silica base", "setting": "[4]; silica base", "result": "moderate discoloration"}, {"measurement": "β-defensin (ng/ml) at 0.1% after 4 hrs", "setting": "[2]", "result": 150, "unit": "ng/mL"}]}, {"compound": "O=C(O[C@@H]1Cc2c(O)cc(O)cc2O[C@@H]1c1cc(O)c(O)c(O)c1)c1cc(O)c(O)c(O)c1", "note": "[EGCG, epigallocatechin gallate, reference compound]", "values": [{"measurement": "antibacterial activity in bacterial culture", "setting": "[5]", "result": "modest antibacterial activity"}, {"measurement": "LL-37 (ng/ml) at 0.05% after 16 hrs", "setting": "[1]; listed as EGCG (source Kenko)", "result": 15, "unit": "ng/mL"}, {"measurement": "LL-37 (ng/ml) at 0.05% after 16 hrs", "setting": "[1]; listed as EGCG (source TeaVigo)", "result": 20, "unit": "ng/mL"}, {"measurement": "LL-37 (ng/ml) at 0.1% after 4 hrs", "setting": "[1]", "result": 160, "unit": "ng/mL"}, {"measurement": "time to discoloration in dentifrice, CDC base", "setting": "[4]; CDC base", "result": 2, "unit": "days"}, {"measurement": "time to discoloration of solution in DMSO/water", "setting": "[4]; same conditions: DMSO/water, RT", "result": "< 1", "unit": "week"}, {"measurement": "time to discoloration in dentifrice, silica base", "setting": "[4]; silica base", "result": 2, "unit": "days"}, {"measurement": "β-defensin (ng/ml) at 0.1% after 4 hrs", "setting": "[2]", "result": 4.3, "unit": "ng/mL"}]}, {"compound": "O=C(O[C@@H]1CCCC[C@H]1OC(=O)c1cc(O)c(O)c(O)c1)c1cc(O)c(O)c(O)c1", "note": "(relative stereo) [THDG, trans-1,2 cyclohexanediol digallate]", "values": [{"measurement": "LL-37 (ng/ml) at 0.05% after 16 hrs", "setting": "[1]", "result": 5900, "unit": "ng/mL"}, {"measurement": "LL-37 (ng/ml) at 0.1% after 4 hrs", "setting": "[1]", "result": 4100, "unit": "ng/mL"}, {"measurement": "uptake in Vitro-Skin from CDC formulation", "setting": "[3]; 0.2 %", "result": 4.9, "unit": "micrograms/cm^2"}, {"measurement": "uptake in Vitro-Skin from HSLS formulation", "setting": "[3]; 0.2 %", "result": 0.6, "unit": "micrograms/cm^2"}, {"measurement": "stability in saliva (discoloration)", "setting": "[4]", "result": "no discoloration to deep green discoloration"}, {"measurement": "discoloration in dentifrice, CDC base", "setting": "[4]; CDC base", "result": "slight discoloration"}, {"measurement": "Stability of neat materials", "setting": "[4]", "result": "short term shelf stability acceptable"}, {"measurement": "discoloration of solutions in DMSO/water", "setting": "[4]", "result": "no discoloration"}, {"measurement": "discoloration in dentifrice, silica base", "setting": "[4]; silica base", "result": "moderate discoloration"}, {"measurement": "β-defensin (ng/ml) at 0.1% after 4 hrs", "setting": "[2]", "result": 280, "unit": "ng/mL"}]}, {"compound": "O=C(O[C@H]1CCC[C@H]1OC(=O)c1cc(O)c(O)c(O)c1)c1cc(O)c(O)c(O)c1", "note": "[CPDG, cis-1,2-cyclopentanediol digallate]", "values": [{"measurement": "LL-37 (ng/ml) at 0.05% after 16 hrs", "setting": "[1]", "result": 160, "unit": "ng/mL"}, {"measurement": "LL-37 (ng/ml) at 0.1% after 4 hrs", "setting": "[1]", "result": 120, "unit": "ng/mL"}, {"measurement": "β-defensin (ng/ml) at 0.1% after 4 hrs", "setting": "[2]", "result": 0.5, "unit": "ng/mL"}]}, {"compound": "catechin gallate", "values": [{"measurement": "potency in LL-37 production compared with EGCG", "setting": "LL-37 production", "result": "significantly less potent"}]}, {"compound": "O=C(N[C@H]1CCCC[C@H]1NC(=O)c1cc(O)c(O)c(O)c1)c1cc(O)c(O)c(O)c1", "note": "[CHDGA, cis-1,2-cyclohexane digallamide]", "values": [{"measurement": "LL-37 (ng/ml) at 0.05% after 16 hrs", "setting": "[1]", "result": 120, "unit": "ng/mL"}, {"measurement": "LL-37 (ng/ml) at 0.1% after 4 hrs", "setting": "[1]", "result": 100, "unit": "ng/mL"}, {"measurement": "β-defensin (ng/ml) at 0.1% after 4 hrs", "setting": "[2]", "result": 0.7, "unit": "ng/mL"}]}]}
